The subject of series [1] is SH-SY5Y (human neuroblastoma). As to the kind of experiment: in vitro. The format is cell-based. The settings on record: EC50 host cell/EC50 T. gondii. On the procedure:
(§1) For the toxicity screen, compounds were tested in 96-well plates using all the wells as no edge affect was observed. Compounds were diluted to 40 μM (2x concentration in 10% DMEM, 0.4% DMSO) before step-wise, 3-fold dilution in 10% DMEM to create 10-dose series (20 μM to 0.001 μM). Host cells were plated in black, μ-Clear 96-well plates (Greiner Bio-One). We compared several lineages including HepG2 (human hepatocellular carcinoma (ATCC-HB-8065)), THP-1 (human monocytic tumor line), SH-SY5Y (human neuroblastoma (ATCC CRL-2266)), A549 (human lung carcinoma (ATCC CRM-CCL-185)) and Caco-2 (human intestinal adenocarcinoma (ATCC HTB-37)) and HFF (primary human foreskin fibroblast) obtained from the laboratory of John Boothroyd at Stanford University. Cells were maintained in culture media according to the formulations recommended by ATCC. Cells were plated at a density (ranging from of 5 × 10^3 to 2 × 10^4 cells/well (100 μL vol)) resulting in sub-confluent monolayers to allow expansion during the 2 day growth assay. THP-1 cells were treated with 10 ng/ml phorbol 12-myristate 13-acetate (PMA) for 24 h to differentiate into macrophages before compound addition. For all other cells, compounds were added at 6 h post seeding to host cells containing plates (200 μL final volume, 0.2% DMSO) and incubated in culture medium at 37 °C supplemented with 5% CO2. At 44 h post compound addition (50 h total growth time), culture media was aspirated and replaced with Live Imaging solution (ThermoFisher) supplemented with 10 μg/mL Hoeschst 33342 (Sigma) for 20 min at 37 °C. […] Alternatively, plates fixed with 4% formaldehyde for 10 min and stained with 10 μg/mL Hoeschst 33342 (Sigma) for 20 min and imaged using a Cytation 3 multi-mode imager (DAPI, 10x objective, 4 images/well) and nuclei quantified using the Gen5 imager software (v3.08). Assays were repeated with two technical replicates within each of two independent biological replicates.
(§2) All statistical analyses were conducted using Prism 9 (GraphPad Software, Inc.). Dose–response inhibition curves for parasite and host cell toxicity screens (EC50 values) were generated using (Log(inhibitor) vs. normalized response—Variable slope) function. […] For multiple comparisons, two-way ANOVA analysis function using either Sidák’s multiple comparisons test or Dunnett’s multiple comparisons test was applied as indicated.

The test system of series [2] is THP-1 (human monocytic tumor line). As to the kind of experiment: in vitro. Particulars: EC50 host cell/EC50 T. gondii. The format is cell-based. On the procedure: as §1, §2
The test system of series [3] is A549 (human lung carcinoma). The series can be described thus: in vitro. Format: cell-based. The settings on record: EC50 host cell/EC50 T. gondii. The protocol:
as §1, §2

A short description of the next series: in vitro. Format: cell-based, human. The settings on record: human, top 20 μM. On the procedure: as §1, §2
The test system of series [4] is blood-stage P. falciparum. Particulars: Fig 2A Tg_Pf_Cp EC50s; previously reported values, reference not visible in the shown part; cited from earlier work.
The subject of series [5] is ex vivo T. gondii ME49-FLuc bradyzoites from tissue cysts of chronically infected mice. As to the kind of experiment: Ex vivo bradyzoite treatment assay (plaque assay). Particulars: for growth of ex vivo bradyzoites at EC50: constant treatment, vs DMSO. The format is cell-based, Toxoplasma gondii. The protocol: The brains from CBA/J mice chronically infected with the ME49-FLuc strain were harvested, homogenized, and tissue cysts isolated on Percoll gradients, as described previously[9],[27]. Following isolation, purified tissue cysts were treated with acid-pepsin solution ([…] sodium chloride (NaCl), 60 mM hydrochloric acid (HCl) and freshly made pepsin (0.1 mg/mL in 1xPBS) for 10 min at 37 °C. Following acid-pepsin treatment and addition of neutralization buffer (94 mM sodium carbonate (Na2CO3), liberated bradyzoites were equally distributed into 6-well plates with 5 mL culture media containing compounds or vehicle control (0.1–0.2% DMSO final concentration). Plates were incubated undisturbed for 12–14 days followed by fixation in 100% ethanol (ETOH) for 5 min at RT, rinsing with tap water, staining in 0.1% crystal violet solution for 10 min at RT, rinsing in water and air drying. Plaques were quantified on a Zeiss AxioObserver microscope equipped with a ×2.5 objective (Department of Molecular Microbiology Imaging Facility at the Washington University School of Medicine).

Series [6] has as its system HepG2 (human hepatocellular carcinoma). The series can be described thus: in vitro. The format is cell-based. The settings on record: EC50 host cell/EC50 T. gondii. On the procedure: as §1, §2
For series [7] the following is noted: 30 mg/kg oral vs 10 mg/kg.
Setting [8] is: PMA differentiated, read-out: THP-1 EC50.
[9] abbreviates: nuclei count, 44 h, read-out: A549 EC50.
Where [10] appears, read: nuclei count, 44 h, read-out: HFF EC50.
The mark [11] stands for this setting: nuclei count, 44 h, read-out: SH-SY5Y EC50.
Setting [12] is: nuclei count, 44 h after compound addition, read-out: HEPG2 EC50.
[13] abbreviates: Constant treatment, Fig 5H top 4, replicates.
The mark [14] stands for this setting: Washout, Fig 5H top 4, replicates.

Molecules are shown by their SMILES. “And” between values parts separate entries of the source, which are not always exact repeats. Equal entries are not always repeated. Where two headings read alike, the source gives them in different places. A value given as a limit tells only on which side of the number the result lay.

The values that follow come from paper PMC8786932, “Bicyclic azetidines target acute and chronic stages of Toxoplasma gondii by inhibiting parasite phenylalanyl t-RNA synthetase” (Nature Communications, 2022).

Turning to `CN(C[C@@H]1[C@H](c2ccc(C#Cc3ccccc3)cc2)[C@@H]2CN(C(=O)Nc3ccc(OC4CC4)cc3)CCCCN12)S(C)(=O)=O` [BRD2987], in series [1], the SH-SY5Y fold selectivity came to 123.9 fold. The compound further showed a THP-1 fold selectivity in series [2] of 13.4 fold. The same compound displayed an A549 fold selectivity in series [3] of 114.0 fold. The 50% effective concentration (EC50) in the series “in vitro” (setting [8]) is 0.255 µM; in “in vitro” (setting [9]), 2.17 µM; in the series “in vitro” (setting [10]), greater than 20 µM; in “in vitro” (setting [11]) it was 2.35 µM; in the series “in vitro” (setting [12]) it was greater than 20 µM; in series [4], 0.002 µM. Further, the “Ex vivo bradyzoite plaques, normalised to DMSO = 100” value in series [5] (setting [13]) is 0.5 and 0.7 and 3.9; in series [5] (setting [14]) it was 6.522 and 15.2 and 18.2.
In turn, `COc1ccc(NC(=O)N2CCCCN3[C@H](CO)[C@H](c4ccc(C#Cc5ccccc5)cc4)[C@@H]3C2)cc1` [BRD3444] returned an SH-SY5Y fold selectivity in series [1] of 91.9 fold. Also, in series [6], the HEPG2 fold selectivity was determined as 390.6 fold. In series [2], this compound gave a THP-1 fold selectivity of 88.9 fold. Moreover, the EC50 in the series “in vitro” (setting [8]) was 2.58 µM; in “in vitro” (setting [9]), greater than 20 µM; in the series “in vitro” (setting [10]), greater than 20 µM; in “in vitro” (setting [11]), 2.67 µM; in “in vitro” (setting [12]), 11.3 µM; in series [4], 0.012 µM. Besides, the “Ex vivo bradyzoite plaques, normalised to DMSO = 100” value is 0.5 and 0.2 and 1.9 in series [5] (setting [13]); 1.087 and 0.00000000 and 9.1 in series [5] (setting [14]).
As to `COc1ccc(NC(=O)N2CCCCN3[C@H](CN(C)C)[C@H](c4ccc(C#Cc5ccccc5)cc4)[C@@H]3C2)cc1` [BRD7929], the EC50 in the series “in vitro” (setting [8]) is 0.672 µM; in the series “in vitro” (setting [9]) it was 5.37 µM; in “in vitro” (setting [10]), 7.87 µM; in “in vitro” (setting [11]), 0.731 µM; in “in vitro” (setting [12]) it was 3.06 µM; in series [4], 0.013 µM. Also, the “plasma levels at increased dose” value in series [7] was “did not lead to a proportional increase in plasma levels”. The “growth inhibition of ex vivo bradyzoites” value in series [5] (3×EC90, constant treatment) was determined as 99%; in series [5] (EC90, constant treatment) it was 93%. Moreover, the effect after washout entry in series [5] (3×EC90, short-term (4 h) treatment then washout) was “sustained following washout”. The “Ex vivo bradyzoite plaques, normalised to DMSO = 100” value in series [5] (setting [13]) is 1.0 and 0.2 and 1.9; in series [5] (Washout, EC50 concentration, Fig 5I), 66.67 and 75.15 and 100; in series [5] (Washout, EC90 concentration, Fig 5I) it was 83.91; in series [5] (setting [14]), 2.174 and 0.37 and 0.00000000. Besides, the “growth of ex vivo bradyzoites at EC50” value in series [5] (EC50 concentration) is on record as “only partially reduced growth”.
Compound `COc1ccc(NC(=O)N2CCCCN3[C@H](CN(C)S(C)(=O)=O)[C@H](c4ccc(C#Cc5ccccc5)cc4)[C@@H]3C2)cc1` [BRD8494] returned an SH-SY5Y fold selectivity in series [1] of 51.0 fold. The compound also displayed an HEPG2 fold selectivity in series [6] of 571.4 fold. In series [2], the THP-1 fold selectivity turned out to be 13.2 fold. For the same compound, the A549 fold selectivity in series [3] is on record as greater than 571.4 fold. Also, the 50% effective concentration (EC50) in “in vitro” (setting [8]) is 0.461 µM; in the series “in vitro” (setting [9]), greater than 20 µM; in “in vitro” (setting [10]), greater than 20 µM; in “in vitro” (setting [11]), 1.79 µM; in “in vitro” (setting [12]), greater than 20 µM; in series [4], 0.026 µM. Also, the “Ex vivo bradyzoite plaques, normalised to DMSO = 100” value is 0.5 and 0.2 and 1.9 in series [5] (setting [13]); 100 and 95.62 and 97.45 in series [5] (Constant, EC50 concentration, Fig 5J); 97.62 and 100 in series [5] (Washout, 3xEC90 concentration, Fig 5J); 100 and 96.6 and 91.18 in series [5] (Washout, EC50 concentration, Fig 5J); 100 in series [5] (Washout, EC90 concentration, Fig 5J); 1.087 and 0.74 and 4.5 in series [5] (setting [14]). Further, the “growth of ex vivo bradyzoites at EC50” value in series [5] (EC50 concentration) is on record as “did not inhibit the growth”. For the same compound, the “growth of ex vivo bradyzoites at higher concentrations” value in series [5] (EC90 and 3×EC90, constant treatment) is reported as “nearly eliminated growth”.
